From ChEMBL document CHEMBL1287811, “Two new cytotoxic labdane diterpenes from the rhizomes of Hedychium coronarium” (2010) come the findings set out here.

Holding throughout (type): functional
Test [1] concerns SK-N-SH. Briefly: Growth inhibition of human SK-N-SH cells by Sulforhodamine B assay.
For test [2], the system named is A549. Briefly: Growth inhibition of human A549 cells by Sulforhodamine B assay. The note with it: for CC50: read-out: LC50 (the source's name).
For test [3], the system named is HeLa. The test is described as follows: Growth inhibition of human HeLa cells by Sulforhodamine B assay.
Test [4] concerns MCF7. The test is described as follows: Growth inhibition of human MCF7 cells by Sulforhodamine B assay.

A value given as a limit tells only on which side of the number the result lay.

As to `CC1(C)CCC[C@]2(C)[C@@H](/C=C/C3=CCOC3=O)C(C=O)=CC(=O)[C@@H]12`, the GI50 turned out to be 38.7 µM in test [1], 18.5 µM in test [2], 76.9 µM in test [3] and 69.9 µM in test [4]. The LC50 in test [1] is 48.5 µM; in test [3] it was over 100 µM. In addition, the CC50 in test [2] was found to be 45.9 µM. This molecule also returned an LC50 (concentration killing 50% of cells) in test [4] of over 100 µM.
Take `CC1(C)CCC[C@]2(C)[C@@H](/C=C/C3=CC(=O)OC3)C(CO)=C(O)C(=O)[C@@H]12`: the GI50 in test [1] came to 12.1 µM; in test [2] it was 26 µM; in test [3] it was 79.7 µM; in test [4], 12 µM. Further, the LC50 in test [1] was 19.3 µM; in test [3], over 100 µM. For the same molecule, the CC50 in test [2] was 48.7 µM. In test [4], this molecule showed an LC50 (concentration killing 50% of cells) of 15.4 µM.
For the molecule `CC1=CC(=O)[C@H]2C(C)(C)CCC[C@]2(C)[C@H]1/C=C/C1=CCOC1=O`, in test [1], the GI50 was 8.2 µM and the LC50 amounted to 20.8 µM. In test [2], growth was halved (GI50) at 21.7 µM and the CC50 turned out to be 39.6 µM. Moreover, in test [3], the GI50 turned out to be 83.6 µM and the LC50 was over 100 µM. In test [4], this molecule returned a GI50 of 15.7 µM and an LC50 (concentration killing 50% of cells) of 19.8 µM.
As to `CC1=CC(=O)[C@H]2C(C)(C)CCC[C@]2(C)C1/C=C/C1=CC(O)OC1=O` (some centres not stated), in test [1], the GI50 is 17.5 µM and the LC50 worked out at 22.8 µM. For the same molecule, in test [2], it took 10.6 µM to inhibit growth by half (GI50) and the CC50 was 21.2 µM. In test [3], the GI50 was over 100 µM and the LC50 was over 100 µM. In test [4], this molecule returned a GI50 of 28.5 µM and an LC50 (concentration killing 50% of cells) of 34.8 µM.
Regarding `COc1cc(/C=C/C=O)ccc1O` [CONIFERYL ALDEHYDE], the GI50 in test [1] was 10.6 µM; in test [2], 1.7 µM; in test [3], 61.8 µM; in test [4], 39.5 µM. Moreover, the CC50 in test [2] was 11.4 µM.
In test [1], `C=C1CC[C@H]2C(C)(C)CCC[C@]2(C)[C@H]1CCC1=CC(O)OC1=O` (some centres not stated) [CORONARIN C] gave a GI50 of 25.8 µM and a 50% lethal concentration (LC50) of 33.7 µM. Moreover, in test [2], the GI50 was found to be 4.8 µM and the CC50 was determined as 9.5 µM. In test [3], this molecule returned a GI50 of 36.3 µM and an LC50 of 45.9 µM. In addition, in test [4], the GI50 was 32.6 µM and the LC50 (concentration killing 50% of cells) amounted to 40.7 µM.
Turning to `C=C1CC[C@H]2C(C)(C)CCC[C@]2(C)[C@H]1C/C=C1/CC(OC)OC1=O` (some centres not stated) [CORONARIN D METHYL ETHER], in test [1], the GI50 was 13.6 µM and the LC50 came out at 19.1 µM. Moreover, in test [2], the concentration for 50% growth inhibition (GI50) is 30 µM and the CC50 was determined as 71.3 µM. In test [3], this molecule yielded a GI50 of over 100 µM and an LC50 of over 100 µM. Also, in test [4], growth was halved (GI50) at 25.3 µM and the LC50 (concentration killing 50% of cells) was determined as 31.6 µM.
Take `C=C1CC[C@H]2C(C)(C)CCC[C@]2(C)[C@H]1C/C=C1/CC(O)OC1=O` (some centres not stated) [CORONARIN D]: the GI50 in test [1] was found to be 20.1 µM; in test [2] it was 8 µM; in test [3] it was 47 µM; in test [4], 17.4 µM. Moreover, the LC50 in test [1] amounted to 32 µM; in test [3], 60.6 µM. Also, the CC50 in test [2] worked out at 14 µM. Further, the LC50 (concentration killing 50% of cells) in test [4] is 21.9 µM.
On to `CC(C)(O)C1CC[C@@]2(C)CCC[C@@](C)(O)[C@@H]2C1` (some centres not stated) [CRYPTOMERIDIOL], for which the GI50 was 73.6 µM in test [1], 14.5 µM in test [2], 75.6 µM in test [3] and 62.3 µM in test [4]. In addition, in test [2], the CC50 came out at 27.4 µM.
Regarding `CCOC(=O)/C=C/c1ccc(O)c(OC)c1` [ETHYL FERULATE], the GI50 stood at 22.3 µM in test [1], 1.2 µM in test [2], 52.8 µM in test [3] and 86.3 µM in test [4]. Besides, in test [2], the CC50 was determined as 5.8 µM.
Consider `CC1=CC(=O)[C@H]2C(C)(C)CCC[C@]2(C)[C@H]1/C=C/c1ccoc1` [HEDYCHENONE], for which, in test [1], the GI50 was determined as 11.6 µM and the 50% lethal concentration (LC50) came out at 17.2 µM. Moreover, in test [2], the concentration for 50% growth inhibition (GI50) is 7.4 µM and the CC50 was 14 µM. In test [3], this molecule had a GI50 of 63.2 µM and an LC50 of 81.5 µM. Moreover, in test [4], it took 14.9 µM to inhibit growth by half (GI50) and the LC50 (concentration killing 50% of cells) was determined as 19.8 µM.
With `COC(=O)Nc1nc2cc(C(=O)c3cccs3)ccc2[nH]1` [NOCODAZOLE], the GI50 was 0.66 µM in test [1], under 0.1 µM in test [2], 0.75 µM in test [3] and under 0.1 µM in test [4]. In addition, the CC50 in test [2] was under 0.1 µM.
With `C=C1C(C/C=C2\COC(=O)C2)[C@@]2(C)CCCC(C)(C)[C@@H]2C[C@@H]1O` (some centres not stated) [PACOVATININ A], in test [1], the GI50 was found to be 54.8 µM and the LC50 came out at 59.9 µM. In addition, in test [2], growth was halved (GI50) at 15.1 µM and the CC50 was 36.2 µM. For the same molecule, in test [3], the 50% growth inhibitory concentration (GI50) came to 62.1 µM and the LC50 worked out at 80.7 µM. Also, in test [4], growth was halved (GI50) at 44.7 µM and the LC50 (concentration killing 50% of cells) is 55.6 µM.
